# Species: Rattus norvegicus
# Test: Open TG-GATES - Regimen: Single
# Type: toxicity, organism-based, Sprague-Dawley
# Set-up: regimen Single, gender Male, age 6 weeks
# Details: in vivo, po, route gavage; for APTT / Bas / Eos / Fbg / Hb / Ht / Lym / MCH / MCHC / MCV / Mono / Neu / PT / Plat / RBC / Ret / WBC: tissue Blood; for KIDNEY_TOTAL: tissue Kidney; for LIVER: tissue Liver; for A/G / ALP / ALT / AST / BUN / CRE / Ca / Cl / DBIL / GLC / IP / K / LDH / Na / PL / RALB / TBIL / TC / TG / TP / gamma-GTP: tissue Plasma
# [1] = 100 mg/kg, 3 h, dose level Middle
# [2] = 100 mg/kg, 6 h, dose level Middle
# [3] = 100 mg/kg, 9 h, dose level Middle
# [4] = 100 mg/kg, 24 h, dose level Middle
# [5] = 500 mg/kg, 3 h, dose level High
# [6] = 500 mg/kg, 6 h, dose level High
# [7] = 500 mg/kg, 9 h, dose level High
# [8] = 500 mg/kg, 24 h, dose level High
smiles,measurement,setting,value
CN(CCOc1ccc(CC2SC(=O)NC2=O)cc1)c1ccccn1.O=C(O)/C=C\C(=O)O (stereo not drawn) [ROSIGLITAZONE MALEATE],TERMINAL_BW,[1],205.4 g
same,APTT,[1],16.2 s
same,Bas,[1],0%
same,Eos,[1],1%
same,Fbg,[1],217.8 mg/dL
same,Hb,[1],13 g/dL
same,Ht,[1],39.5%
same,Lym,[1],77.2%
same,MCH,[1],21.3 pg
same,MCHC,[1],32.8%
same,MCV,[1],65 fL
same,Mono,[1],7.8%
same,Neu,[1],14.4%
same,PT,[1],12.2 s
same,Plat,[1],119.4 x10_4/uL
same,RBC,[1],607.6 x10_4/ul
same,Ret,[1],8.6%
same,WBC,[1],105 x10_2/uL
same,KIDNEY_TOTAL,[1],0.8 g
same,LIVER,[1],9.5 g
same,A/G,[1],2.2
same,ALP,[1],1374 IU/L
same,ALT,[1],36.6 IU/L
same,AST,[1],74.6 IU/L
same,BUN,[1],13.4 mg/dL
same,CRE,[1],0.4 mg/dL
same,Ca,[1],11.6 mg/dL
same,Cl,[1],104 meq/L
same,DBIL,[1],0.014 mg/dL
same,GLC,[1],189.2 mg/dL
same,IP,[1],8.9 mg/dL
same,K,[1],4.4 meq/L
same,LDH,[1],107.8 IU/L
same,Na,[1],139.6 meq/L
same,PL,[1],133.2 mg/dL
same,RALB,[1],3.6 g/dL
same,TBIL,[1],0.046 mg/dL
same,TC,[1],78.8 mg/dL
same,TG,[1],75.6 mg/dL
same,TP,[1],5.3 g/dL
same,gamma-GTP,[1],0.8 IU/L
same,TERMINAL_BW,[2],206.8 g
same,APTT,[2],16.7 s
same,Bas,[2],0%
same,Eos,[2],1%
same,Fbg,[2],221.8 mg/dL
same,Hb,[2],12.4 g/dL
same,Ht,[2],37.5%
same,Lym,[2],67.4%
same,MCH,[2],20.7 pg
same,MCHC,[2],33.1%
same,MCV,[2],62.5 fL
same,Mono,[2],9.8%
same,Neu,[2],22%
same,PT,[2],12.4 s
same,Plat,[2],124.2 x10_4/uL
same,RBC,[2],600 x10_4/ul
same,Ret,[2],8.9%
same,WBC,[2],105.2 x10_2/uL
same,KIDNEY_TOTAL,[2],0.8 g
same,LIVER,[2],9 g
same,A/G,[2],2.3
same,ALP,[2],1392.2 IU/L
same,ALT,[2],33.6 IU/L
same,AST,[2],64 IU/L
same,BUN,[2],10.2 mg/dL
same,CRE,[2],0.4 mg/dL
same,Ca,[2],11.1 mg/dL
same,Cl,[2],104.2 meq/L
same,DBIL,[2],0.016 mg/dL
same,GLC,[2],179.2 mg/dL
same,IP,[2],10 mg/dL
same,K,[2],4.5 meq/L
same,LDH,[2],82.2 IU/L
same,Na,[2],138.4 meq/L
same,PL,[2],127.8 mg/dL
same,RALB,[2],3.6 g/dL
same,TBIL,[2],0.042 mg/dL
same,TC,[2],73 mg/dL
same,TG,[2],64.2 mg/dL
same,TP,[2],5.2 g/dL
same,gamma-GTP,[2],1 IU/L
same,TERMINAL_BW,[3],198.2 g
same,APTT,[3],16.2 s
same,Bas,[3],0%
same,Eos,[3],1%
same,Fbg,[3],217 mg/dL
same,Hb,[3],12.7 g/dL
same,Ht,[3],38.5%
same,Lym,[3],75.6%
same,MCH,[3],22.1 pg
same,MCHC,[3],32.9%
same,MCV,[3],67.1 fL
same,Mono,[3],4.8%
same,Neu,[3],19%
same,PT,[3],12.3 s
same,Plat,[3],118.4 x10_4/uL
same,RBC,[3],574.2 x10_4/ul
same,Ret,[3],8.9%
same,WBC,[3],85 x10_2/uL
same,KIDNEY_TOTAL,[3],0.8 g
same,LIVER,[3],8.3 g
same,A/G,[3],2.5
same,ALP,[3],1125.2 IU/L
same,ALT,[3],28 IU/L
same,AST,[3],62 IU/L
same,BUN,[3],11.2 mg/dL
same,CRE,[3],0.4 mg/dL
same,Ca,[3],11.7 mg/dL
same,Cl,[3],103.8 meq/L
same,DBIL,[3],0.014 mg/dL
same,GLC,[3],190.6 mg/dL
same,IP,[3],11.3 mg/dL
same,K,[3],4.3 meq/L
same,LDH,[3],120.2 IU/L
same,Na,[3],140.4 meq/L
same,PL,[3],122.2 mg/dL
same,RALB,[3],3.9 g/dL
same,TBIL,[3],0.046 mg/dL
same,TC,[3],70.2 mg/dL
same,TG,[3],49.6 mg/dL
same,TP,[3],5.5 g/dL
same,gamma-GTP,[3],0.6 IU/L
same,TERMINAL_BW,[4],224.2 g
same,APTT,[4],16.3 s
same,Bas,[4],0%
same,Eos,[4],0.8%
same,Fbg,[4],213.2 mg/dL
same,Hb,[4],12.4 g/dL
same,Ht,[4],38%
same,Lym,[4],68.8%
same,MCH,[4],20.9 pg
same,MCHC,[4],32.7%
same,MCV,[4],63.8 fL
same,Mono,[4],9.4%
same,Neu,[4],21.2%
same,PT,[4],11.5 s
same,Plat,[4],120.6 x10_4/uL
same,RBC,[4],596.2 x10_4/ul
same,Ret,[4],7.7%
same,WBC,[4],74.8 x10_2/uL
same,KIDNEY_TOTAL,[4],0.6 g
same,LIVER,[4],11.2 g
same,A/G,[4],2.7
same,ALP,[4],1341.6 IU/L
same,ALT,[4],40.2 IU/L
same,AST,[4],71.2 IU/L
same,BUN,[4],16.6 mg/dL
same,CRE,[4],0.4 mg/dL
same,Ca,[4],11.3 mg/dL
same,Cl,[4],104.4 meq/L
same,DBIL,[4],0.016 mg/dL
same,GLC,[4],187.6 mg/dL
same,IP,[4],7.8 mg/dL
same,K,[4],4.5 meq/L
same,LDH,[4],123.8 IU/L
same,Na,[4],140 meq/L
same,PL,[4],161.6 mg/dL
same,RALB,[4],3.8 g/dL
same,TBIL,[4],0.032 mg/dL
same,TC,[4],90.6 mg/dL
same,TG,[4],127.2 mg/dL
same,TP,[4],5.3 g/dL
same,gamma-GTP,[4],1 IU/L
same,TERMINAL_BW,[5],202.9 g
same,APTT,[5],16.4 s
same,Bas,[5],0%
same,Eos,[5],0.6%
same,Fbg,[5],224.2 mg/dL
same,Hb,[5],13 g/dL
same,Ht,[5],39.4%
same,Lym,[5],77.6%
same,MCH,[5],21.2 pg
same,MCHC,[5],33.1%
same,MCV,[5],64.1 fL
same,Mono,[5],7.8%
same,Neu,[5],14.2%
same,PT,[5],12.3 s
same,Plat,[5],129.2 x10_4/uL
same,RBC,[5],613.8 x10_4/ul
same,Ret,[5],9.1%
same,WBC,[5],85.4 x10_2/uL
same,KIDNEY_TOTAL,[5],0.6 g
same,LIVER,[5],8.9 g
same,A/G,[5],2.3
same,ALP,[5],1535.8 IU/L
same,ALT,[5],35.8 IU/L
same,AST,[5],69.6 IU/L
same,BUN,[5],15 mg/dL
same,CRE,[5],0.5 mg/dL
same,Ca,[5],11.6 mg/dL
same,Cl,[5],102.2 meq/L
same,DBIL,[5],0.01 mg/dL
same,GLC,[5],185.2 mg/dL
same,IP,[5],10.5 mg/dL
same,K,[5],4.2 meq/L
same,LDH,[5],76.8 IU/L
same,Na,[5],140.4 meq/L
same,PL,[5],137 mg/dL
same,RALB,[5],3.9 g/dL
same,TBIL,[5],0.036 mg/dL
same,TC,[5],84.2 mg/dL
same,TG,[5],78 mg/dL
same,TP,[5],5.6 g/dL
same,gamma-GTP,[5],1 IU/L
same,TERMINAL_BW,[6],206.5 g
same,APTT,[6],16.5 s
same,Bas,[6],0%
same,Eos,[6],1%
same,Fbg,[6],217 mg/dL
same,Hb,[6],13.2 g/dL
same,Ht,[6],40%
same,Lym,[6],62.6%
same,MCH,[6],21 pg
same,MCHC,[6],32.9%
same,MCV,[6],63.8 fL
same,Mono,[6],11.6%
same,Neu,[6],24.8%
same,PT,[6],11.8 s
same,Plat,[6],118.4 x10_4/uL
same,RBC,[6],626.8 x10_4/ul
same,Ret,[6],9.7%
same,WBC,[6],75.4 x10_2/uL
same,KIDNEY_TOTAL,[6],0.7 g
same,LIVER,[6],8.6 g
same,A/G,[6],2.4
same,ALP,[6],1138.8 IU/L
same,ALT,[6],30.8 IU/L
same,AST,[6],69 IU/L
same,BUN,[6],10 mg/dL
same,CRE,[6],0.5 mg/dL
same,Ca,[6],11 mg/dL
same,Cl,[6],104 meq/L
same,DBIL,[6],0.014 mg/dL
same,GLC,[6],176.4 mg/dL
same,IP,[6],10.6 mg/dL
same,K,[6],4 meq/L
same,LDH,[6],70.4 IU/L
same,Na,[6],139.6 meq/L
same,PL,[6],140.4 mg/dL
same,RALB,[6],3.9 g/dL
same,TBIL,[6],0.042 mg/dL
same,TC,[6],89.2 mg/dL
same,TG,[6],69.2 mg/dL
same,TP,[6],5.5 g/dL
same,gamma-GTP,[6],1 IU/L
same,TERMINAL_BW,[7],203.4 g
same,APTT,[7],17 s
same,Bas,[7],0%
same,Eos,[7],0.8%
same,Fbg,[7],211.4 mg/dL
same,Hb,[7],12.4 g/dL
same,Ht,[7],37.6%
same,Lym,[7],77.4%
same,MCH,[7],21.5 pg
same,MCHC,[7],33%
same,MCV,[7],65.2 fL
same,Mono,[7],5.2%
same,Neu,[7],16.6%
same,PT,[7],12.4 s
same,Plat,[7],128.2 x10_4/uL
same,RBC,[7],577 x10_4/ul
same,Ret,[7],9.1%
same,WBC,[7],77.4 x10_2/uL
same,KIDNEY_TOTAL,[7],0.6 g
same,LIVER,[7],7.9 g
same,A/G,[7],2.6
same,ALP,[7],1267.6 IU/L
same,ALT,[7],28.2 IU/L
same,AST,[7],65.4 IU/L
same,BUN,[7],12 mg/dL
same,CRE,[7],0.4 mg/dL
same,Ca,[7],11.8 mg/dL
same,Cl,[7],104.2 meq/L
same,DBIL,[7],0.016 mg/dL
same,GLC,[7],180.8 mg/dL
same,IP,[7],10.9 mg/dL
same,K,[7],4.6 meq/L
same,LDH,[7],94.6 IU/L
same,Na,[7],139.8 meq/L
same,PL,[7],114.8 mg/dL
same,RALB,[7],3.9 g/dL
same,TBIL,[7],0.048 mg/dL
same,TC,[7],63.6 mg/dL
same,TG,[7],68.6 mg/dL
same,TP,[7],5.4 g/dL
same,gamma-GTP,[7],0.4 IU/L
same,TERMINAL_BW,[8],222.1 g
same,APTT,[8],16.4 s
same,Bas,[8],0%
same,Eos,[8],1.2%
same,Fbg,[8],212.6 mg/dL
same,Hb,[8],12.3 g/dL
same,Ht,[8],37.6%
same,Lym,[8],65.6%
same,MCH,[8],21.3 pg
same,MCHC,[8],32.7%
same,MCV,[8],65.1 fL
same,Mono,[8],8.4%
same,Neu,[8],24.8%
same,PT,[8],12.1 s
same,Plat,[8],128.4 x10_4/uL
same,RBC,[8],578.4 x10_4/ul
same,Ret,[8],8.4%
same,WBC,[8],96 x10_2/uL
same,KIDNEY_TOTAL,[8],0.7 g
same,LIVER,[8],10.3 g
same,A/G,[8],2.7
same,ALP,[8],1526.8 IU/L
same,ALT,[8],34.6 IU/L
same,AST,[8],65.2 IU/L
same,BUN,[8],18 mg/dL
same,CRE,[8],0.4 mg/dL
same,Ca,[8],11.1 mg/dL
same,Cl,[8],104.2 meq/L
same,DBIL,[8],0.02 mg/dL
same,GLC,[8],183.8 mg/dL
same,IP,[8],7.9 mg/dL
same,K,[8],4.6 meq/L
same,LDH,[8],87.6 IU/L
same,Na,[8],140.4 meq/L
same,PL,[8],127 mg/dL
same,RALB,[8],3.9 g/dL
same,TBIL,[8],0.03 mg/dL
same,TC,[8],70.2 mg/dL
same,TG,[8],113.6 mg/dL
same,TP,[8],5.3 g/dL
same,gamma-GTP,[8],1 IU/L
